# Results reported in patent US9371294B2, “Cycloalkenyl aryl derivatives for CETP inhibitor” (CHONG KUN DANG PHARMACEUTICAL CORP., priority 2011, dated 2016).
# Biological target: T1, cholesteryl ester transfer protein (Homo sapiens, UniProt P11597)
# T1 construct: As a source of cholesteryl ester transfer protein, plasma from healthy humans was used; from tissue; host or cells: plasma from healthy humans
# T1 sequence (P11597 18-493): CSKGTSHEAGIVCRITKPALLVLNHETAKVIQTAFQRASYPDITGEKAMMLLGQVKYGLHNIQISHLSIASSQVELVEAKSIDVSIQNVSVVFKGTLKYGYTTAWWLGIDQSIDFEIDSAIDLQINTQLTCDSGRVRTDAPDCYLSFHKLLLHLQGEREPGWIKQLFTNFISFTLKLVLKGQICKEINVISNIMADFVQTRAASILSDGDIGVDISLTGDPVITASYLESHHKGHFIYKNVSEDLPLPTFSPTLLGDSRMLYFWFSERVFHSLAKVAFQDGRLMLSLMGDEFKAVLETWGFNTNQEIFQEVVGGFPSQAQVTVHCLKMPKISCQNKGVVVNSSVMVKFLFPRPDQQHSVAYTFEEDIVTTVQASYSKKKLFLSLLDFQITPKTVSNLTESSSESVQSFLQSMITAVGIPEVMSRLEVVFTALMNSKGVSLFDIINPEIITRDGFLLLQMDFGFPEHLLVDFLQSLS
# Assay: In vitro test for the ability to inhibit cholesteryl ester transfer
# Type: biochemical
# Details: [3H]-cholesteryl oleate transfer from rHDL-agarose to LDL; human plasma as CETP source; 37° C.; 16-10000 nM, duplicate
# Text: In Vitro Test for the Ability to Inhibit Cholesteryl Ester Transfer
# 1. Preparation of Cholesteryl Ester Donor
# In order to prepare a cholesteryl ester donor to be used in the test, a radiolabeled recombinant HDL containing [^3H]-cholesteryl oleate (GE healthcare, TRK886, 3.5 μCi/mg of apoA-1) and apoA-1 was synthesized. Then, rHDL-agarose obtained by immobilizing the recombinant HDL with CNBr-activated Sepharose 4B resin (Amersham Biosciences, Sweden) was used in the test.
# 2. Cholesteryl Ester Transfer Test
# As a source of cholesteryl ester transfer protein, plasma from healthy humans was used, and as cholesteryl ester receptor, LDL from healthy humans was used. Each of test compounds was added to be final concentrations of 16, 80, 400, 2000 and 10000 nM and tested in duplicate. In order to test cholesteryl ester transfer, 20 μl of plasma, 50 μl of LDL (0.25 mg/ml) and 50 μl of rHDL-agarose (0.25 mg/ml) were mixed with each other, and a solution of each test compound was added thereto and reacted thereto at 37° C. Then, the reaction solution was centrifuged at 4° C. for 3 minutes, thereby the reaction was stopped. 150 μl of the supernatant was transferred into a 96-well plate for radioactivity measurement, and the radioactivity thereof was measured with a beta-ray detector.
# 3. Statistical Processing
# The ratio of [^3H]-cholesteryl oleate transferred from HDL to LDL was determined, and based on the determined ratio, the IC50 value of each compound was determined using GraphPad Prism 5.0.
row,Compound,IC50
1,"COc1cc(F)c(C(C)C)cc1C1=C(CN2C(=S)O[C@H](c3cc(C(F)(F)F)cc(C(F)(F)F)c3)[C@@H]2C)CCCC1 [Compound 28, (4S,5R)-5-(3,5-bis(trifluoromethyl)phenyl)-3-((2-(4-fluoro-5-isopropyl-2-methoxyphenyl)cyclohex-1-enyl)methyl)-4-methyloxazolidine-2-thione]",390 nM
2,"COC(=O)C(C)(C)Cc1ccc(OC)c(C2=C(CN3C(=O)O[C@H](c4cc(C(F)(F)F)cc(C(F)(F)F)c4)[C@@H]3C)CC(C)(C)CC2)c1 [Compound 285, methyl 3-(3-(2-(((4S,5R)-5-(3,5-bis(trifluoromethyl)phenyl)-4-methyl-2-oxooxazolidin-3-yl)methyl)-4,4-dimethylcyclohex-1-enyl)-4-methoxyphenyl)-2,2-dimethylpropanoate]",33 nM
3,"COc1cc(F)c(OC(C)C)cc1C1=C(CN2C(=O)O[C@H](c3cc(C(F)(F)F)cc(C(F)(F)F)c3)[C@@H]2C)CC(C)(C)CC1 [Compound 241, (4S,5R)-5-(3,5-bis(trifluoromethyl)phenyl)-3-((2-(4-fluoro-5-isopropoxy-2-methoxyphenyl)-5,5-dimethylcyclohex-1-enyl)methyl)-4-methyloxazolidin-2-one]",390 nM
4,"COc1cc(F)c(C(C)C)cc1C1=C(CN2C(=O)O[C@H](c3cc(C(F)(F)F)cc(C(F)(F)F)c3)[C@@H]2C)CN(C(C)C)CC1 [Compound 265, (4S,5R)-5-(3,5-bis(trifluoromethyl)phenyl)-3-((4-(4-fluoro-5-isopropyl-2-methoxyphenyl)-1-isopropyl-1,2,5,6-tetrahydropyridin-3-yl)methyl)-4-methyloxazolidin-2-one]",164 nM
5,"COc1ccc(OC(F)(F)F)cc1C1=C(CN2C(=O)O[C@H](c3cc(C(F)(F)F)cc(C(F)(F)F)c3)[C@@H]2C)CC(C)(C)CC1 [Compound 117, (4S,5R)-5-(3,5-bis(trifluoromethyl)phenyl)-3-((2-(2-methoxy-5-(trifluoromethoxy)phenyl)-5,5-dimethylcyclohex-1-enyl)methyl)-4-methyloxazolidin-2-one]",80 nM
6,"COc1ccc(C(C)O)cc1C1=C(CN2C(=O)O[C@H](c3cc(C(F)(F)F)cc(C(F)(F)F)c3)[C@@H]2C)CC(C)(C)CC1 (stereo partly drawn) [Compound 103, (4S,5R)-5-(3,5-bis(trifluoromethyl)phenyl)-3-((2-(5-(1-hydroxyethyl)-2-methoxyphenyl)-5,5-dimethylcyclohex-1-enyl)methyl)-4-methyloxazolidin-2-one]",30 nM
7,"COc1cc(F)c(C(C)C)cc1C1=C(CN2C(=S)O[C@H](c3cc(C(F)(F)F)cc(C(F)(F)F)c3)[C@@H]2C)CC(C)(C)CC1 [Compound 17, (4S,5R)-5-(3,5-bis(trifluoromethyl)phenyl)-3-((2-(4-fluoro-5-isopropyl-2-methoxyphenyl)-5,5-dimethylcyclohex-1-enyl)methyl)-4-methyloxazolidine-2-thione]",510 nM
8,"COc1ccc(C(C)O)cc1C1=C(CN2C(=O)O[C@H](c3cc(C(F)(F)F)cc(C(F)(F)F)c3)[C@@H]2C)CCCC1 (stereo partly drawn) [Compound 80, (4S,5R)-5-(3,5-bis(trifluoromethyl)phenyl)-3-((2-(5-(1-hydroxyethyl)-2-methoxyphenyl)cyclohex-1-enyl)methyl)-4-methyloxazolidin-2-one]",100 nM
9,"COc1ccc(C(C)C)cc1C1=C(CN2C(=O)O[C@H](c3cc(C(F)(F)F)cc(C(F)(F)F)c3)[C@@H]2C)CCC(C)(C)C1 [Compound 44, (4S,5R)-5-(3,5-bis(trifluoromethyl)phenyl)-3-((2-(5-isopropyl-2-methoxyphenyl)-4,4-dimethylcyclohex-1-enyl)methyl)-4-methyloxazolidin-2-one]",430 nM
10,"COc1cc(F)c(C(=O)C(F)(F)F)cc1C1=C(CN2C(=O)O[C@H](c3cc(C(F)(F)F)cc(C(F)(F)F)c3)[C@@H]2C)CC(C)(C)CC1 [Compound 191, (4S,5R)-5-(3,5-bis(trifluoromethyl)phenyl)-3-((2-(4-fluoro-2-methoxy-5-(2,2,2-trifluoroacetyl)phenyl)-5,5-dimethylcyclohex-1-enyl)methyl)-4-methyloxazolidin-2-one]",90 nM
11,"COC(=O)N(C)c1ccc(OC)c(C2=C(CN3C(=O)O[C@H](c4cc(C(F)(F)F)cc(C(F)(F)F)c4)[C@@H]3C)CC(C)(C)CC2)c1 [Compound 124, methyl 3-(2-(((4S,5R)-5-(3,5-bis(trifluoromethyl)phenyl)-4-methyl-2-oxooxazolidin-3-yl)methyl)-4,4-dimethylcyclohex-1-enyl)-4-methoxyphenyl(methyl)carbamate]",20 nM
12,"COc1ccc(N(C)c2nc(C(F)(F)F)cs2)cc1C1=C(CN2C(=O)O[C@H](c3cc(C(F)(F)F)cc(C(F)(F)F)c3)[C@@H]2C)CC(C)(C)CC1 [Compound 212, (4S,5R)-5-(3,5-bis(trifluoromethyl)phenyl)-3-((2-(2-methoxy-5-(methyl(4-(trifluoromethyl)thiazol-2-yl)amino)phenyl)-5,5-dimethylcyclohex-1-enyl)methyl)-4-methyloxazolidin-2-one]",80 nM

# The remaining lines, values ahead:
row,IC50,Compound
1,20 nM,"COc1cc(F)c(C(C)C)cc1C1=C(CN2C(=O)O[C@H](c3cc(C(F)(F)F)cc(C(F)(F)F)c3)[C@@H]2C)CCC(C)(C)C1 [Compound 109, (4S,5R)-5-(3,5-bis(trifluoromethyl)phenyl)-3-((2-(4-fluoro-5-isopropyl-2-methoxyphenyl)-4,4-dimethylcyclohex-1-enyl)methyl)-4-methyloxazolidin-2-one]"
2,1 nM,"COc1ccc(CCC#N)cc1C1=C(CN2C(=O)O[C@H](c3cc(C(F)(F)F)cc(C(F)(F)F)c3)[C@@H]2C)CC(C)(C)CC1 [Compound 300, 3-(3-(2-(((4S,5R)-5-(3,5-bis(trifluoromethyl)phenyl)-4-methyl-2-oxooxazolidin-3-yl)methyl)-4,4-dimethylcyclohex-1-enyl)-4-methoxyphenyl)propanenitrile]"
3,20 nM,"COc1ccc(N(C)C(=O)CC(F)(F)F)cc1C1=C(CN2C(=O)O[C@H](c3cc(C(F)(F)F)cc(C(F)(F)F)c3)[C@@H]2C)CC(C)(C)CC1 [Compound 130, N-(3-(2-(((4S,5R)-5-(3,5-bis(trifluoromethyl)phenyl)-4-methyl-2-oxooxazolidin-3-yl)methyl)-4,4-dimethylcyclohex-1-enyl)-4-methoxyphenyl)-3,3,3-trifluoro-N-methylpropanamide]"
4,13 nM,"COc1ccc(CC(C)(C)c2nnn(C)n2)cc1C1=C(CN2C(=O)O[C@H](c3cc(C(F)(F)F)cc(C(F)(F)F)c3)[C@@H]2C)CC(C)(C)CC1 [Compound 341, (4S,5R)-5-(3,5-bis(trifluoromethyl)phenyl)-3-((2-(2-methoxy-5-(2-methyl-2-(2-methyl-2H-tetrazol-5-yl)propyl)phenyl)-5,5-dimethylcyclohex-1-enyl)methyl)-4-methyloxazolidin-2-one]"
5,9 nM,"COc1ccc(N(C)C(=O)C(C)(C)OC(C)=O)cc1C1=C(CN2C(=O)O[C@H](c3cc(C(F)(F)F)cc(C(F)(F)F)c3)[C@@H]2C)CC(C)(C)CC1 [Compound 243, 1-((3-(2-(((4S,5R)-5-(3,5-bis(trifluoromethyl)phenyl)-4-methyl-2-oxooxazolidin-3-yl)methyl)-4,4-dimethylcyclohex-1-enyl)-4-methoxyphenyl)(methyl)amino)-2-methyl-1-oxopropan-2-yl acetate]"
6,8 nM,"COc1cc(C(F)(F)F)c(N(C)C(C)=O)cc1C1=C(CN2C(=O)O[C@H](c3cc(C(F)(F)F)cc(C(F)(F)F)c3)[C@@H]2C)CC(C)(C)CC1 [Compound 210, N-(5-(2-(((4S,5R)-5-(3,5-bis(trifluoromethyl)phenyl)-4-methyl-2-oxooxazolidin-3-yl)methyl)-4,4-dimethylcyclohex-1-enyl)-4-methoxy-2-(trifluoromethyl)phenyl)-N-methylacetamide]"
7,9 nM,"COc1cc(F)c(C2CC2)cc1C1=C(CN2C(=O)O[C@H](c3cc(C(F)(F)F)cc(C(F)(F)F)c3)[C@@H]2C)CC(C)(C)CC1 [Compound 237, (4S,5R)-5-(3,5-bis(trifluoromethyl)phenyl)-3-((2-(5-cyclopropyl-4-fluoro-2-methoxyphenyl)-5,5-dimethylcyclohex-1-enyl)methyl)-4-methyloxazolidin-2-one]"
